Series [1] is described as follows: Distribution coefficient between octanol and PBS, log D of compound in pH 7.4 at 100 uM incubated for 12 hrs by LC-MS/MS analysis. It is filed as physicochemical.
The nature of series [2]: Metabolic stability in human liver microsomes assessed as half life at 1 uM incubated for 30 mins by LC-MS/MS analysis. The format is ADME, Microsome.
A short description of series [3]: Metabolic stability in mouse liver microsomes assessed as half life at 1 uM incubated for 30 mins by LC-MS/MS analysis. The format is ADME, Microsome.
Series [4] in a line: Cmax in C57BL/6 mouse at 10 mg/kg, ip measured upto 24 hrs. It is filed as ADME, organism-based. Further details: route intraperitoneal, dose 10 mg/kg, time <=24. To be noted: in vivo.
Series [5] in a line: Tmax in C57BL/6 mouse at 10 mg/kg, ip measured upto 24 hrs. The format is ADME, organism-based. To be noted: in vivo.
Series [6] can be described thus: Half life in C57BL/6 mouse at 10 mg/kg, ip measured upto 24 hrs. The format is ADME, organism-based. To be noted: in vivo.
A short description of series [7]: AUC (0 to last) in C57BL/6 mouse at 10 mg/kg, ip measured upto 24 hrs. The format is ADME, organism-based. Further details: route intraperitoneal, dose 10 mg/kg, time <=24. To be noted: in vivo.
Series [8] can be described thus: AUC (0 to infinity) in C57BL/6 mouse at 10 mg/kg, ip measured upto 24 hrs. It is filed as ADME, organism-based. Also on record: route intraperitoneal, dose 10 mg/kg, time <=24. To be noted: in vivo.
Series [9] is described as follows: AUC extrapolated in C57BL/6 mouse at 10 mg/kg, ip measured upto 24 hrs. It is filed as ADME, organism-based. To be noted: in vivo.
The nature of series [10]: MRT (0 to last) in C57BL/6 mouse at 10 mg/kg, ip measured upto 24 hrs. The format is ADME, organism-based. The following applies: in vivo.

Molecule `O=C(Nc1ccc(Br)cc1)NC(C(=O)Nc1cccnn1)C1CCCC1` (configuration not stated) gave a logD at 12 h, 100 µM in series [1] of more than 4. Also, the half-life at 1 µM in series [2] came out at 0.267 h; in [3] it was 0.183 h.
`O=C(Nc1ccc(Br)cc1)NC1(C(=O)NCc2nn[nH]n2)CCCC1` gave a logD at 12 h, 100 µM in [1] of 1.1. In addition, the half-life at 1 µM was 8.67 h in series [2] and 6.98 h in series [3].
Molecule `O=C(Nc1ccc(Br)cc1)N[C@@H](CC1CC1)C(=O)Nc1cccnc1` showed a logD at 12 h, 100 µM in series [1] of more than 4. For the same molecule, the half-life at 1 µM in [2] came out at 1.52 h; in [3], 0.733 h.
In series [1], `CC(C)n1cc(NC(=O)C2(NC(=O)Nc3ccc(Br)cc3)CCCC2)cn1` showed a logD at 12 h, 100 µM of 4.2. The half-life at 1 µM in series [2] stood at 2.17 h; in [3], 1.5 h.
On the same counts, the results for `O=C(Nc1ccc(Br)cc1)NC1(C(=O)Nc2ccc(Cl)nc2)CCCC1` are 4.4, 0.867 h and 0.533 h.
In turn, `O=C(Nc1ccc(Br)cc1)NC(C(=O)NCC1CCCO1)C1CCCC1` (configuration not stated) had a logD at 12 h, 100 µM in [1] of 4.7. Further, the values for the half-life at 1 µM in series [2] and in series [3] were 0.217 h and 0.417 h, respectively.
`O=C(Nc1ccc(Br)cc1)NC1(C(=O)Nc2cncnc2)CCCC1` displayed a logD at 12 h, 100 µM in series [1] of 3.7. The half-life at 1 µM came out at 1.83 h in series [2] and 1.73 h in series [3].
The like results for `O=C(Nc1ccc(Br)cc1)NC1(C(=O)Nc2cccnc2)CCCC1` were, in that order, 4.1, 1.8 h and 1.32 h.
For `O=C(Nc1ccc(Br)cc1)NC(C(=O)NC1COC1)C1CCCC1` (configuration not stated), the logD at 12 h, 100 µM in series [1] was 4.3. Moreover, the half-life at 1 µM in series [2] and in series [3] was more than 6.67 h each time.
As for `O=C(Nc1ccc(Br)cc1)NC(C(=O)NC1CNC1)C1CCCC1` (configuration not stated), in series [1], the logD at 12 h, 100 µM came to 1.6.
With `O=C(Nc1ccc(Br)cc1)NC(CC1CCCCC1)C(=O)Nc1cccnc1` (configuration not stated), the logD at 12 h, 100 µM in series [1] was more than 4. Besides, the half-life at 1 µM came to 1.02 h in series [2] and 0.183 h in series [3].
For `Cc1cncc(NC(=O)C2(NC(=O)Nc3ccc(Br)cc3)CCCC2)c1`, in [1], the logD at 12 h, 100 µM was found to be 3.7.
For the molecule `O=C(Nc1ccc(Br)cc1)NC(C(=O)NC1CCOCC1)C1CCCC1` (configuration not stated), the logD at 12 h, 100 µM in series [1] was more than 4. Besides, the figures for the half-life at 1 µM in series [2] and in series [3] were 3.45 h and 1.73 h, respectively.
In turn, `O=C(Nc1ccc(Br)cc1)NC1(C(=O)Nc2ccccn2)CCCC1` displayed a logD at 12 h, 100 µM in series [1] of 4.3. Further, the half-life at 1 µM came out at 0.133 h in series [2] and 0.15 h in series [3].
In series [1], `CC(C)n1cc(NC(=O)C(NC(=O)Nc2ccc(Br)cc2)C2CCCC2)cn1` (configuration not stated) had a logD at 12 h, 100 µM of more than 4.
In turn, `CC(C)C[C@H](NC(=O)Nc1ccc(Br)cc1)C(=O)Nc1cccnc1` had a logD at 12 h, 100 µM in [1] of 4.2. Moreover, the half-life at 1 µM in [2] turned out to be 1.58 h; in series [3] it was 1.08 h.
In series [1], `O=C(Nc1ccc(Br)cc1)NC(C(=O)Nc1cncnc1)C1CCCC1` (configuration not stated) displayed a logD at 12 h, 100 µM of 4. The half-life at 1 µM in series [2] stood at 3.07 h; in series [3] it was 1.53 h.
Molecule `Cc1nn(C)cc1NC(=O)C(NC(=O)Nc1ccc(Br)cc1)C1CCCC1` (configuration not stated) returned a logD at 12 h, 100 µM in series [1] of more than 4.
For the molecule `O=C(Nc1ccc(Br)cc1)NC(C(=O)Nc1cccnc1)C1CCOCC1` (configuration not stated), the logD at 12 h, 100 µM in [1] amounted to 4.7. Also, the figures for the half-life at 1 µM in series [2] and in [3] were 3.13 h and 1.5 h, respectively.
Consider `CN1CCC(NC(=O)C2(NC(=O)Nc3ccc(Br)cc3)CCCC2)CC1`, for which the logD at 12 h, 100 µM in series [1] stood at 1.2. Moreover, the half-life at 1 µM in [2] turned out to be 2.62 h; in series [3] it was 3.23 h.
On to `O=C(Nc1ccc(Br)cc1)NC(C(=O)Nc1cccnc1)C1CCCC1` (configuration not stated), for which, in series [1], the log distribution coefficient (logD) at 12 h, 100 µM was more than 4. Moreover, the half-life at 1 µM is 1.38 h in [2] and 0.55 h in series [3]. In series [4], this molecule came in with a Cmax of 31900 ng/mL. The Tmax in [5] is 0.5 h. Further, in series [6], the half-life is 2.08 h. In series [7], this molecule registered an AUC(0-t) at 24 h of 69000 ng·h/mL. The same molecule returned a total exposure AUC(0-inf) in [8] of 69000 ng·h/mL. In addition, in series [9], the “%AUCextra” value is reported as 0.02%. The same molecule displayed an MRT last at 24 h in [10] of 2.41 h.
`Cc1ccc(NC(=O)C2(NC(=O)Nc3ccc(Br)cc3)CCCC2)cn1` displayed a logD at 12 h, 100 µM in series [1] of 3.9. Also, the results for the half-life at 1 µM in [2] and in [3] were 1.67 h and 0.6 h, respectively.
`Cc1nn(C)cc1NC(=O)C1(NC(=O)Nc2ccc(Br)cc2)CCCC1` displayed a logD at 12 h, 100 µM in series [1] of 3.1. Moreover, the half-life at 1 µM in [2] was determined as 2.6 h; in [3], 3.78 h.
In [1], `O=C(Nc1ccc(Br)cc1)NC(C(=O)Nc1cccnc1)C1CC1` (configuration not stated) yielded a logD at 12 h, 100 µM of more than 4. The half-life at 1 µM came out at 1.33 h in series [2] and 0.683 h in [3].
Turning to `O=C(CNC(=O)Nc1ccc(Br)cc1)Nc1cccnc1`, the log distribution coefficient (logD) at 12 h, 100 µM in series [1] was determined as 3.6. The results for the half-life at 1 µM in series [2] and in [3] were 1.87 h and 0.367 h, respectively.
Regarding `CN1CCC(NC(=O)C(NC(=O)Nc2ccc(Br)cc2)C2CCCC2)CC1` (configuration not stated), the logD at 12 h, 100 µM in [1] turned out to be 2.5. Also, the half-life at 1 µM amounted to 1.83 h in series [2] and 7.95 h in series [3].

The values are drawn from ChEMBL document CHEMBL4732183, “Synthesis and evaluation of novel cyclopentane urea FPR2 agonists and their potential application in the treatment of cardiovascular inflammation” (Eur J Med Chem, 2021).
